{"source": "patent US11938137B2", "about": "“Lipid prodrugs of mycophenolic acid and uses thereof” (PureTech LYT, Inc., priority 2017, dated 2024)", "key": {"[1]": {"assay": "Lymphatic transport assay in mesenteric lymph-duct cannulated rats", "assay_type": "in vivo, rat", "settings": "total MPA related compound, intraduodenal infusion, anesthetised mesenteric lymph-duct cannulated rats; class symbols", "method": "In order to assess the lymphatic transport of disclosed lipid prodrugs in rats, the mesenteric lymph ducts of the rats used in this study were cannulated to allow continual collection of mesenteric lymph. Lipid formulations containing the compound of interest were then administered to the animals, lymph was collected, and drug concentrations in the lymph samples were quantified.\nLipid-based formulations of the compounds of the invention or control compounds were prepared as previously described (Trevaskis, N. L. et al., Pharmaceutical Research, 2005, 22(11), 1863-1870, WO 2016/023082, and WO 2017/041139, hereby incorporated by reference.\nIn brief, either 1 or 2 mg of test prodrug, 40 mg oleic acid and 25 mg Tween 80 were mixed in a glass vial and incubated at 37° C. for 12-18 h to equilibrate. An aqueous phase consisting of 5.6 ml phosphate buffered saline (PBS, pH 7.4) was subsequently added to the lipid phase (MPA was dissolved in PBS for the preparation of MPA containing formulations) and the formulation emulsified by ultrasonication with a Misonix XL 2020 ultrasonic processor (Misonix, Farmingdale, NY, USA) equipped with a 3.2-mm microprobe tip running at 30% of the maximal amplitude of 240 μm and a frequency of 20 kHz for 2 min at room temperature. Doses for administering to more than one animal can be prepared in one batch by suitably increasing the quantities given above. Drug/prodrug concentrations in all formulations were verified using HPLC-MS.\nMale Sprague-Dawley (SD) rats were selected for the lymphatic transport studies. Rats (typically 240-320 g) were maintained on a standard diet and fasted overnight with free access to water prior to experiments.\nAnesthetized rats were placed on a heated pad at 37° C. and cannulas inserted into the duodenum (for formulation administration and rehydration), mesenteric lymph duct (for lymph collection), and carotid artery (in cases where blood collection was conducted). Post-surgery, rats were re-hydrated for 0.5 h via intraduodenal infusion of normal saline at 2.8 mL/h. The lipid formulations were infused into the duodenum at 2.8 mL/h for 2 h after which, normal saline was infused at 2.8 mL/h for the remainder of the experiment. Lymph was continuously collected for up to 8 h into pre-weighed Eppendorf tubes containing 10 μL of 1,000 IU/mL heparin. The collection tubes were changed hourly and lymph flow was measured gravimetrically. Aliquots of hourly lymph samples were stored at −20° C. prior to assay.\nDrug concentration in lymph is expressed as total drug and includes free drug and drug associated with different glycerides. Lymph samples are first treated with a lipase or other appropriate conditions to liberate free active agent prior to measurement of active agent levels in the lymph. Treatment with a lipase or other hydrolysis conditions liberates free active agent from any corresponding re-esterified glycerides. Porcine pancreatic lipase is appropriate for this purpose. Alternatively, hydrolysis with 0.5 M NaOH may be used. For MPA “phenol” prodrugs (i.e. prodrugs linked to the triglyceride at the aromatic —OH group of MPA), hydrolysis was performed with 0.5 M NaOH except for the lymph samples collected from 3 rats in the group of compound I-20 (MPA-O-C12α′βMe-TG), which were hydrolyzed by porcine pancreatic lipase.\nTransport of compounds into lymph during each hourly collection period was calculated from the product of the volume of lymph collected and the measured concentrations in lymph. For fluorescently-labelled compounds such as a BDP-conjugate, the concentrations of total compound may be measured by fluorescence spectroscopy without hydrolysis.\nThe results of the lymphatic transport assays are summarized in Table 2, below, and FIGS. 1-19. Table 2 summarizes lymphatic transport of total MPA related compound (% of administered dose) following intraduodenal infusion to anaesthetised, mesenteric lymph-duct cannulated rats. […]"}, "[2]": {"assay": "In vitro release of MPA from prodrugs in plasma supplemented with lipoprotein lipase (LPL)", "assay_type": "in vitro ADME, rat", "settings": "60 min; n = 3 unless specified otherwise", "method": "The percentage of MPA released at 60 minutes in LPL-supplemented rat plasma was also determined for selected compounds. […] The designation “**” indicates a release % of >25% to 50%. The designation “***” indicates a release % of >50% to 75%. The designation “****” indicates a release % of >75%.\nIn order to probe the release of free drug from TG prodrugs in the systemic circulation, prodrugs were incubated with plasma (rat, mouse, dog, pig or human) supplemented with lipoprotein lipase (LPL, 200 IU/ml). LPL is a key enzyme required for the hydrolysis of lipoprotein associated TG in the systemic circulation and is therefore expected to be a key contributor to lipolysis of the re-esterified drug-TG construct in plasma, largely via liberation of fatty acids in the sn-1 and the sn-3 position of the TG-mimetic, prior to drug release from the 2′ position via esterase hydrolysis. LPL is […] is tethered to the luminal surface of vascular endothelial cells under physiological conditions. In the current in vitro studies, plasma was therefore supplemented with LPL to better reflect the in vivo situation. To start hydrolysis, 10 μl of LPL solution (10,000 IU/ml) was added to a mixture of 10 μl of prodrug solution (1 mg/ml dissolved in acetonitrile) and 500 μl of blank plasma. The mixture was incubated at 37° C. Samples (20 μl) of the incubation solution were taken at 0, 5, 15, 30, 60, 90, 120 and 180 minutes post-incubation and added to 180 μl of MeCN to stop lipolysis. The mixture was vortexed and centrifuged at 4500×g for 5 minutes to precipitate proteins prior to analysis. The supernatant was analyzed by HPLC-MS/MS for the potential products (MG form, acid form, and free drug) of prodrug hydrolysis."}, "[3]": {"assay": "Prodrug lymph node study in mice (free MPA in mesenteric and peripheral lymph nodes)", "assay_type": "in vivo, mouse", "settings": "oral multiple dose study (2 times daily for 2 days, samples on 3rd day)", "source_text": "This experiment included a single and multiple dose study."}, "[4]": {"settings": "cited from earlier work"}}}
{"molecule": "CCCCCCCCCCCCCCCC(=O)OCC(COC(=O)CCCCCCCCCCCCCCC)OC(=O)CC/C(C)=C/Cc1c(O)c2c(c(C)c1OC)COC2=O", "note": "[I-34, MPA-2-TG]", "values": [{"measurement": "Cumulative lymphatic transport % dose (Mean ± SD, or Range if n = 2)", "setting": "[1]", "value": "A (greater than 10% (>10%))"}, {"measurement": "Percentage MPA release at 60 min in LPL supplemented rat plasma", "setting": "[2]", "value": "*** (a release % of >50% to 75%)"}, {"measurement": "concentrations of free MPA in mesenteric lymph nodes compared with MPA", "setting": "[3]", "value": "Much higher concentrations"}]}
{"molecule": "CCCCCCCCCCC(=O)O[C@H]1CC[C@H]2[C@@H]3CCC4=CC(=O)CC[C@]4(C)[C@H]3CC[C@]12C", "note": "[testosterone undecanoate]", "values": [{"measurement": "bioavailability of testosterone after oral administration of the undecanoate ester", "setting": "[4]", "value": "< 5", "unit": "%"}]}
